Article PMC8599359 (Molecular Neurobiology, 2021)
“Also recorded” adds a separate entry of the source.

Legend:
[1] = molecular target: T1, MMP-2 (Homo sapiens, UniProt P08253); assay: Gelatin zymography of medium of PMA-stimulated THP-1 cells; format: cell-based; details: 100 µM, 18 h, compared to controls
T1 sequence (P08253 110-660): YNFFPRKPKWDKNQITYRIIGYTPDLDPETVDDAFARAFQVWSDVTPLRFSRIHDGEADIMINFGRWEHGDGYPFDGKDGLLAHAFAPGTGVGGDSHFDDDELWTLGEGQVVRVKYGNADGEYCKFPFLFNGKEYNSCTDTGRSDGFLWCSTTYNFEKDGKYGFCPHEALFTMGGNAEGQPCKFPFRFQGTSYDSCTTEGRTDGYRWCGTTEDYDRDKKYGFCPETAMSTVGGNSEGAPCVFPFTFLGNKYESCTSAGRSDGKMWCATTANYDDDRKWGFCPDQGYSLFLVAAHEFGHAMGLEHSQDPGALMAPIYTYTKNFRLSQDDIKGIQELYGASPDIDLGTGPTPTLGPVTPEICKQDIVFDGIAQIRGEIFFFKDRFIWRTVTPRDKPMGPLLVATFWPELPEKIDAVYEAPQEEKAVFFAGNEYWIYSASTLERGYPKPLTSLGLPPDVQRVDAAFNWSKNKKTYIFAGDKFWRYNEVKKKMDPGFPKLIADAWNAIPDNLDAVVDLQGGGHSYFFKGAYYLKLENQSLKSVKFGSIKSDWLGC
Procedure: (§1) THP-1 cells were plated in 12-well plates at a density of 1 × 10^6 cells per well. First, THP-1 were treated with phorbol-12-myristate-13-acetate (PMA) for 24 h to promote the differentiation of cells into macrophages and stimulate MMP secretion. […] For each treatment, biological triplicate samples were utilized. Following treatment, cell medium was collected from each well and centrifuged at 800 × g for 10 min at 4 °C to remove any cell debris. Collected samples were stored at − 80 °C for further analysis. A 10% SDS–polyacrylamide gel containing 0.1% gelatin was loaded with 3 µg of protein from cell medium for gelatin zymography. In parallel, second 10% SDS–polyacrylamide gel was used to assess equal protein loading. In addition, recombinant human MMP-2 and MMP-9 (10 ng each) were loaded as standards (EMD Millipore, Burlington, MA). Gel ran at 60 V until the loading dye reached the bottom of the gel. After the run, the gelatin gel was washed with water for 15 min and incubated in renaturation buffer [2.5% (v/v) Triton X-100 in Milli-Q water] for 60 min at room temperature. The renaturation buffer was replaced with a fresh renaturation buffer at the interval of 30 min. […] Relative activity of MMPs was measured by quantitating band density by ImageJ software and normalized with respective standard.

[2] = system: infants born to women receiving DTG at conception; details: cited from earlier work
[3] = molecular target: MMP-9 (Homo sapiens, UniProt P14780); assay: Gelatin zymography of medium of PMA-stimulated THP-1 cells; format: cell-based; parameters: endogenous in cells; host or cells: PMA-stimulated THP-1 cells, culture medium; details: 100 µM, 18 h, compared to controls
Sequence of MMP-9 (P14780 94-707): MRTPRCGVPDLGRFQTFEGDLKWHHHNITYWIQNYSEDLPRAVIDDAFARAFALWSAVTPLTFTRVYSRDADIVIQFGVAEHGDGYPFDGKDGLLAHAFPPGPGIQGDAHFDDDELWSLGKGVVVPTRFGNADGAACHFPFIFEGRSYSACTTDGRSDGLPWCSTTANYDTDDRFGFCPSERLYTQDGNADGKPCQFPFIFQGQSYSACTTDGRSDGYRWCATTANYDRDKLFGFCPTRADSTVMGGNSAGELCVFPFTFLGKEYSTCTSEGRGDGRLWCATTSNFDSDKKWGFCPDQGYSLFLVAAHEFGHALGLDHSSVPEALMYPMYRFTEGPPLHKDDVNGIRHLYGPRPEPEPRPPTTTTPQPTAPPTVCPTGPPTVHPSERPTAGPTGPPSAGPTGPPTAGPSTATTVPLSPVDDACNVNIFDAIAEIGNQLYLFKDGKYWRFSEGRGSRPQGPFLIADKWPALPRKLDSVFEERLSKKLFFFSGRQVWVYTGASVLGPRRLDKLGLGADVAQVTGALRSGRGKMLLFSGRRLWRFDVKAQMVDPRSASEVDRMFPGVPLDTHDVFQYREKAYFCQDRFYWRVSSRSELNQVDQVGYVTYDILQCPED
Procedure: as §1

[4] = system: C3H/HeJ mice pups, brain; assay: Diffusion tensor imaging of pups; format: in vivo, mouse
Procedure: In vivo bioimaging (diffusion tensor imaging (DTI) and magnetic resonance spectroscopy (^1H MRS)) was performed using a 7 Tesla/16 cm Bruker PharmaScan or a 7 Tesla 21 cm Bruker Biospec (Karlsure, Germany) MRI/MRS system. At PND 28–34, DTI was performed on live mice pups to determine microstructural changes. Animals from both DTG- and vehicle-treated (control) groups were scanned. Pups (male and female) were randomly selected from each dam. As described in our previous work, a 4-segment echo planar imaging (EPI) readout with a balanced, rotationally invariant and alternating polarity icosahedral scheme (12 directions) and b value = 800 s/mm^2 were utilized. Diffusion Toolkit (http://trackvis.org/dtk/) was used to calculate DTI metrics, fractional anisotropy (FA). Region of interest (ROI) analysis was performed to measure DTI metrics on hippocampus (HI), cortex (CT), striatum (ST), thalamus (TH), hypothalamus (HY), and cerebellum (CE).

[5] = system: THP-1 cells; assay: MTT cytotoxicity assay; format: cell-based; details: THP-1 cells, 1, 10 or 100 µM, 18 h
Procedure: THP-1 cells were plated in 96-well plates at a density of 0.08 × 10^6 cells per well. […] Vehicle-treated cells were used as controls. For each treatment, twelve samples were utilized. Cells were washed with PBS and incubated with 100 μL/well of MTT solution (5 mg/mL) for 45 min at 37 °C. After incubation, MTT solution was removed, and DMSO (200 μL) was added to each well. Absorbance was measured at 490 nm on a Molecular Devices SpectraMax M3 plate reader with SoftMax […].2 software (Sunnyvale, CA). Absorbance was compared to that of control cells to determine cytotoxicity.

[6] = system: C3H/HeJ mice pups, hippocampus; assay: Magnetic resonance spectroscopy (1H MRS) of pups; format: in vivo, mouse
Procedure: After DTI measurements, the same animals were scanned by ^1H MRS to measure metabolite concentrations. N-Acetylaspartate (NAA), total choline (tCho), and total creatine (tCre) were measured in HI region. Animals from both groups, DTG and control, were scanned. SemiLASER localization with timing parameters (TE/TR = 40/4000 ms, 576 averages, 2048 points) was used to obtain MRS data. Voxel was located on HI. All first- and second-order shim terms were automatically adjusted using MAPSHIM® (Bruker, Billerica, MA). A final shim performed manually, if necessary, to achieve a water line width of 10–15 Hz. The water signal was suppressed by variable power radiofrequency (RF) pulses with optimized relaxation delays (VAPOR). MRS data were quantified using LCModel (LCMODEL Inc., CA). Results were expressed as a percentage of the sum of all 3 metabolites as a semi-quantitative method for reporting metabolite concentrations in institutional units (I.U.). Glycerophosphocholine and phosphocholine were added and reported as total choline-containing compounds.

C[C@@H]1CCO[C@H]2Cn3cc(C(=O)NCc4ccc(F)cc4F)c(=O)c(O)c3C(=O)N12 [DTG, Dolutegravir]
Relative activity of pro and active forms of MMP-2 [1]: significantly decreased
overall clinical prevalence of NTDs among infants born to women receiving DTG at conception [2]: ~ 0.3%
risk of NTDs relative to other ARTs at conception ([2]; extended surveillance in Botswana): 2–3 times
Relative activity of pro form of MMP-9 [3]: significantly decreased
fractional anisotropy (FA) values vs control ([4]; PND 28-34, all six brain regions (HI, CT, ST, TH, HY, CE)): significantly lower
fractional anisotropy (FA) values vs control ([4]; female pups, HI): trend of decrease
fractional anisotropy (FA) values vs control ([4]; female pups, TH): significant reduction
fractional anisotropy (FA) values vs control ([4]; male pups, HI, CT, ST and HY): significantly reduced
fractional anisotropy (FA) values vs control ([4]; male pups, TH and CE): trend of reduced FA values
Cytotoxicity (cellular viability, MTT) [5]: Cytotoxicity was not observed at any concentration; also recorded: no DTG-induced cytotoxicity
NAA levels in hippocampus vs control ([6]; PND 28-34, all pups): significantly reduced
tCho levels in hippocampus vs control ([6]; PND 28-34, all pups): significant increase
tCre (internal reference) in hippocampus vs control ([6]; PND 28-34, all pups): No differences
NAA in hippocampus vs control ([6]; female pups): significantly reduced
